“Also recorded” adds a separate entry of the source.
Legend:
[1] = tested on: LPS signal transduction in differentiated THP-1 cells; test: TNF-α secretion of LPS-treated, PMA-differentiated THP-1 cells by ELISA; type: cell-based, human; conditions: differentiated THP-1, 20 ng/ml LPS, 6 hours
Description: First, THP-1 monocyte (TIB-202TM, ATCC) was cultured in RPMI containing 10% FBS (Fetal Bovine Serum) and 50 µM 2-mercaptoethanol at 37° C. and 5% CO2. When cell density reached 90%, they were washed with a DPBS buffer solution (pH 7.4). Then, to increase the sensitivity to LPS, the cells were suspended in a medium supplemented with 200 nM PMA (phorbol 12-myristate-13-acetate), and aliquoted to a 96-well plate in a density of 2.5×10^4/well, followed by incubation for 72 hours at 37° C. and 5% CO2 for differentiation.
Prior to the experiment, 10 μg/ml of InlB-VLR and MD-2-added RPMI medium, and 10 μg/ml of MD-2 and 10 μg/ml of IVLR-added medium, 10 μg/ml of TV3-added medium, and 10 μg/ml of TV-3 and MD-2-added medium as control groups were prepared and left at 37° C. for 1 hour. Then, THP-1 differentiated into macrophage by PMA was washed with DPBS buffer solution (pH 7.4) three times, and the sample-containing RPMI media were treated with 20 ng/ml of LPS and THP-1, followed by incubation at 37° C. and 5% CO2 for 6 hours. After 6 hours, a predetermined amount of culture was taken from each well, and diluted 4-8 fold using DPBS buffer solution (pH 7.4), followed by ELISA (Enzyme-Linked Immunosorbent Assays) for the secreted TNF-α.
Monocyte THP-1 (TIB-202TM, ATCC) was cultured in RPMI media supplemented with 10% Fetal Bovine Serum (FBS) and 50 µM of 2-mercaptoethanol at 37° C. and 5% CO2. When the cells reached 90% confluence, they were washed with PBS buffer solution (pH 7.4). In order to increase LPS sensitivity, the cells were suspended in RPMI media containing 200 nM of PMA (phorbol 12-myristate-13-acetate), and plated in a 96-well plate at a density of 2.5×10^4 cells/well, and differentiated at 37° C. and 5% CO2 for 72 hours.
Prior to the experiment, the LPS inhibitor polymyxin B was diluted in RPMI at a concentration of 1-100 μg/ml, and incubated at 37° C. for 1 hour. […] The results were calculated from a standard curve of TNF-α.

[2] = reported, Akashi et al. 2003; read-out: binding affinity (Kd) for LPS; cited from earlier work
[3] = tested on: TLR4/MD-2 receptor activation by LPS; test: NF-κB firefly/Renilla luciferase reporter assay in HEK293/hTLR4A-MD2-CD14 cells; type: cell-based, human; conditions: HEK293/hTLR4A-MD2-CD14, 10 ng/ml LPS, 6 hours
Description: In order to monitor activation of TLR4-MD-2 receptor by LPS, an HEK293/hTLR4A-MD2-CD14 cell line (Invivogen) stably expressing TLR4 and MD2, CD14 genes, prepared by introduction of the genes into HEK293 cell, was used. The HEK293/hTLR4A-MD2-CD14 cell line was subcultured in an RPMI medium (Invitrogen) supplemented with 10% Fetal Bovine Serum (FBS) in an incubator at 37° C. and 5% CO2, and then used for the experiment.
In the present invention, the LPS inhibitor, polymyxin B (Invivogen) and the LPS antagonist, LPS-RS (Invivogen) were diluted in RPMI media at a concentration of 0.01-100 μg/ml, and reacted with 10 ng/ml of LPS at 37° C. for 1 hour. […]
First, the media were removed from the 24-well plate, and the plate was washed with a PBS buffer solution twice, and then 200 μl of passive lysis buffer (PLB) was added to each well for cell lysis. After 30 minutes, 20 μl of cell lysate was transferred to a new 96 well-plate, and then 100 μl of LAR II reagent containing a substrate of firefly luciferase was added to measure luminescence using a VICTOR X Multilabel Plate Reader (PerkinElmer) for 0.5 seconds. After measurement of firefly luciferase luminescence, 100 μl of STOP & GLO reagent containing a substrate of Renilla luciferase was added to measure Renilla luciferase luminescence for 0.5 second. […]

MD-2: Myeloid differentiation protein-2, also called lymphocyte antigen 96, a glycoprotein that binds LPS
inhibitory effect on LPS signal transduction (TNF-α secretion) [1]: weak inhibitory effect
Kd [2]: 65 nM

TLR4/MD-2 complex: complex of Toll-like receptor 4 with MD-2
Kd [2]: 3 nM

polymyxin B
inhibitory effect on LPS signal transduction (relative firefly luciferase activity) [3]: relatively reduced luciferase activity; also recorded: relative reduction of firefly luciferase activity
inhibitory effect on LPS signal transduction (TNF-α secretion) [1]: reduction in TNF-α secretion; also recorded: reduction in LPS signal transduction

sTLR4: soluble extracellular domain of cell membrane receptor TLR4
inhibitory effect on LPS signal transduction (relative firefly luciferase activity) [3]: no LPS blocking activity
inhibitory effect on LPS signal transduction (TNF-α secretion) [1]: no LPS blocking activity

Source: patent US9441017B2, “Water-soluble polypeptides comprised of repeat modules, method for preparing the same and method for a target-specific polypeptide and analysis of biological activity thereof” (priority 2011, dated 2016)
